The source of these data is patent publication US7241733B2, “Mammalian EPO mimetic CH1 deleted mimetibodies, compositions, methods and uses” (Centocor, Inc., priority 2003, dated 2007).

Data set [1] has as its system EPO dependent UT-7/EPO cell line. Briefly: in vitro bioactivity assay: UT-7/EPO cell viability after rHuEPO withdrawal (MTS). Type of data set: cell-based, human. As to the method: The activity of EMP-NfusCG1 was first tested in an in vitro bioactivity assay. For this assay, the EPO dependent UT-7/EPO cell line, derived from a patient with acute megakaryoblastic leukemia, was used (Komatsu et al., 1993, Blood, vol. 82 (2), 456-464). These cells undergo programmed cell death 48 to 72 hours after withdraw from media supplemented with rHuEPO. Cells that have been incubated in the absence of rHuEPO for 24 hours can be saved if treated with rHuEPO or an EPO agonist. EMP-NfusCG1 was added to cells starved without rHuEPO and cell viability was determined 48 hours after treatment using the tetrazolium compound MTS (CellTiter 96 Aqueous One Solution, Promega) that is metabolized by living cells to yield a product with an absorbance that can be measured. […] In addition, these same cells were stimulated with EMP-NfusCG1 and tyrosine phosphorylation patterns visualized by running cell lysate through a polyacrylamide gel.

A further data set relates to normal mice. Briefly: in vivo erythropoiesis (hematocrit) in normal mice. To be noted: equal activity units. As for the experimental part: (§1) In vivo studies were done in normal mice to compare the half-life of EMP-NfusCG1 to that of rHuEPO and to compare their effects on erythropoiesis. […] Also seen in preliminary studies, when rHuEPO was dosed at 2000 U/kg the hematocrit of the mice was maximally elevated on day 4 and fell back to near baseline levels by day 7. […] The difference in molecular weights was also taken into consideration (rHuEPO=30,400 daltons, EMP-NfusCG1=62,200 daltons).

Data set [2] has as its system cells that express the EPO receptor. Briefly: complement lysis of cells that express the EPO receptor. It counts as cell-based. To be noted: preliminary studies. The source says: It has been shown that mutation of two […] (L) residues, L234 & L235, in the IgG1 lower hinge region to alanine (A) will abrogate the ability of the immunoglobulin to mediate complement dependent cytotoxicity (CDC) and antibody dependant cellular cytotoxicity (ADCC) (Hezereh et al., 2001, J. Virol., vol. 75 (24), 12161-68). […] This may be due to the low number of receptors that are found on erythroid progenitor cells. In addition the in vivo expansion of erythriod progenitors as evidenced by significant increases in hematocrit supports the possible functional irrelevance of immune effector functions. However, while no effector function associated affects have been observed, there remains an interest in introducing these mutations as a precautionary step.

A short description of data set [3]: serum concentrations measured by ELISA in normal mice. It counts as in vivo. As to the method: as §1
The serum concentrations of both rHuEPO and EMP-NfusCG1 were measured by ELISA. […] This is consistent with the expected 2 to 8 hour half-life of rHuEPO in rodents. (PRI Expert Report, Part IC2: Toxico-Pharmacological Documentation). In contrast, levels of EMP-NfusCG1 as high as 1.5 ug/mL were detected on day 4 and remained high through the end of the study. The linearity of the clearance profile in FIG. 6 is unusual. It may be that, since the first time point was 3 days after the last injection, the maximum concentration (Cmax) was reached before the first sample was taken and therefore the peak of the exponential curve was not observed. Another explanation is that the absorption and elimination profiles of this novel construct are such that the clearance profile appears linear.
For orientation: An ELISA detects its analyte on a solid surface through an enzyme-linked reagent.

The conditions of data set [4]: 50% serum; cited from earlier work.

pEC50: −log10 of the molar value. Entries after “also recorded” stand apart in the source; their conditions may differ.

The pEC50 is −log10 of the EC50, conventionally taken in molar units. Take “EMP-NfusCG4: identical to EMP-NfusCG1 except that the hinge and constant regions are of the G4 subtype; SEQ ID NO:51”: the pEC50 in data set [1] (average) is 9.46. The “potency relative to EMP-NfusCG1 (fold less), on average” value in data set [1] (average of assays) is given as “about 10 fold”. Also, in data set [1] (worked out from 10 fold vs EMP-NfusCG1 and 5 fold vs rHuEPO), the “expected difference to rHuEPO” value was “about 50 fold”.
For “EMP-NfusCG1: EMP-1 peptide, two Gly-Gly-Gly-Ser repeats, human J region, IgG1 hinge, CH2 and CH3; SEQ ID NO:50”, in the data set on normal mice, the “duration of hematocrit response compared to rHuEPO” value is “elevated levels are maintained for a longer period; also recorded: prolonged” and the “maximal hematocrit response compared to rHuEPO” value is recorded as “significantly higher maximal hematocrit; also recorded: higher maximal response”. Besides, the “complement lysis of cells that express the EPO receptor” value in data set [2] is listed as “does not mediate complement lysis”. Moreover, in data set [3] (day 4, ELISA), the “serum level detected on day 4” value is not above 1500 ng/mL. In data set [3] (normal mice, calculated from serum clearance profile), the approximate half-life was approximately 259 h.
As for “EMP-1: 20 amino acid peptide with no sequence homology to HuEPO, able (as a dimer) to activate the EPO receptor (GGTYSCHFGPLTWVCKPQGG)”, the ex-vivo half-life in data set [4] was 8 h.
